Assay results as given in US6355687B1, “Cosmetic compositions containing substituted iminodibenzyl or fluorene derivatives” (Unilever Home and Personal Care USA, division of Conopco, …, priority 2000, dated 2002).
Values joined by “and” are separate entries in the source; they are usually repeats but may differ in a detail not shown here. Identical values can stand only once. Like-named read-outs stand apart in the source and are kept apart here.

Test system: human sebocytes
Test: Sebum suppression: 14C-acetate incorporation in cultured human sebocytes, test agent alone or with retinol
Assay type: cell-based
Conditions: for activity at 1 µM / activity at 10 µM: read-out: % of Control
Description: Compounds A through H were tested for their potential to suppress sebum expression, alone or in the presence of a retinoid.
Secondary cultures of human sebocytes obtained from an adult […] were grown in 48-well tissue culture plates (Costar Corp.; Cambridge, Mass.) or 96-well tissue culture plates (Packard Co.; Meriden, Conn.) until confluent. Sebocyte growth medium consisted of Clonetics Keratinocyte Basal Medium (KBM) supplemented with 14 μg/ml bovine pituitary extract, 0.4 μg/ml hydrocortisone, 5 μg/ml insulin, 10 ng/ml epidermal growth factor, 1.2×10−10 M cholera toxin, 100 units/ml penicillin, and 100 μg/ml streptomycin. All cultures were incubated at 37° C. in the presence of 7.5% CO2. Medium was changed three times per week.
On the day of experimentation, the growth medium was removed and the sebocytes washed three times with sterile Dulbecco's Modified Eagle Medium (DMEM; phenol red free). Fresh DMEM was added to each sample (duplicates, triplicates, or quadruplicates depending on the experiment) with 5 microliter of test agent solubilized in ethanol either alone or in the presence of one or 10 micromolar of retinol. Controls consisted of addition of ethanol alone, retinol alone, or phenol red, which has estrogen-like activity and is included as a positive control.
Each plate was returned to the incubator for 20 hours followed by the addition of 14C-acetate buffer (5 mM final concentration, 56 mCi/mmol specific activity). Sebocytes were returned to the incubator for four hours after which each culture was rinsed three times with phosphate buffered saline to remove unbound label. Radioactive label remaining in the sebocytes was harvested and counted using a Beckman scintillation counter.

[1] = Homo sapiens, 1 μM test compound + 1 μM Retinol
[2] = Homo sapiens, 1 μM test compound + 10 μM Retinol
[3] = Homo sapiens, 1 μM test compound alone
[4] = Homo sapiens, 10 μM test compound + 1 μM Retinol
[5] = Homo sapiens, 10 μM test compound + 10 μM Retinol
[6] = Homo sapiens, 10 μM test compound alone
[7] = 10 μM test compound + 10 μM Retinol

Structure (SMILES) | activity at 1 µM [1] [%] | activity at 1 µM [2] [%] | activity at 1 µM [3] [%] | activity at 10 µM [4] [%] | activity at 10 µM [5] [%] | activity at 10 µM [6] [%] | also measured
O=C(Nc1ccc(O)cc1)N1c2ccccc2CCc2ccccc21 [Compound C] | 83.7 | 70.3 | 91.4 | 27.5 | 1.4 | 41.5 | sebum suppressive activity when combined with retinol (in the presence of retinol / a retinoid, summary in words): improved activity
CCCN(CCO)C(=O)CC1c2ccccc2-c2ccccc21 [Compound H] | 76.8 | 68 | 65.9 | 71 | 73.5 | 71.1 | –
O=C(CC1c2ccccc2-c2ccccc21)N1CCC(O)(c2ccc(Cl)cc2)CC1 [Compound F] | 35.7 | 29.3 | – | 15.3 | – | – | % of Control (10 μM test compound alone): 26.7% and 75.0%
O=S1(=O)OC(c2ccc(O)cc2)(c2ccc(O)cc2)c2ccccc21 [Phenol Red, phenol red, reference compound] | – | – | – | – | – | – | % of Control (28 μM Phenol Red (positive control)): 84.4%; activity at 28 µM (Homo sapiens, 28 μM Phenol Red (positive control)): 67.6%
O=C(CC1c2ccccc2-c2ccccc21)N1CCC(O)(c2ccccc2)CC1 [Compound G] | 114 | – | – | 65.3 | 63.8 | 63 | % of Control (1 μM test compound + 10 μM Retinol): 80.2% and 102.9%; % of Control (1 μM test compound alone, 1 µM): 77.3% and 105.2%; % of Control [7]: 75.4%
O=C(Nc1ccc(OC(F)(F)F)cc1)N1c2ccccc2CCc2ccccc21 [Compound B] | 86 | 74.2 | 88.9 | 96 | 111 | 82 | –
CC1=C(/C=C/C(C)=C/C=C/C(C)=C/CO)C(C)(C)CCC1 [Retinol, retinol, reference compound] | – | – | – | – | – | – | % of Control (1 μM Retinol alone): 98.4% and 99.9% and 85.5% and 99.3%; % of Control (10 μM Retinol alone): 101.8% and 111.7% and 100.1% and 81.8% and 104.8% and 95.2%; sebum suppressive activity (alone, summary in words): inactive
Cc1c(Cl)cccc1NC(=O)N1c2ccccc2CCc2ccccc21 [Compound D] | 75.4 | 74.3 | 80.1 | 105 | 88.7 | 101 | % of Control (100 μM test compound + 1 μM Retinol): 1.1%; % of Control (100 μM test compound + 10 μM Retinol): 0.5%; % of Control (100 μM test compound alone): 1.8%
CC(O)c1cccc(NC(=O)N2c3ccccc3CCc3ccccc32)c1 (stereo not drawn) [Compound A] | – | – | – | – | – | – | % of Control (1 μM test compound + 1 μM Retinol): 86.2%; % of Control (10 μM test compound + 1 μM Retinol): 85.8% and 45.9%; % of Control [7]: 80.1% and 44.3%; % of Control (10 μM test compound alone, 10 µM): 88.8%
